Test system: 454973-116-R2-J3-PDC complex spheroid viability
Assay: Anticancer human tumor 454973-116-R2-J3-PDC patient-derived pancreatic carcinoma cell line growth inhibition [POLQ]
Conditions: for IC50: curve of first compound; for viability, T/C: stronger effect = lower value
Outline: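 Growth inhibition in 3D: complex spheroids (tumor PDC, HUVEC, MSC) treated with POLQ inhibitor combinations; where Cmax unknown, highest tested concentration 10 microM, except SN-38 at 1 microM.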

[1] = second compound 0.0316 µM, first compound 0.0316 µM
[2] = second compound 0.0316 µM, first compound 0.1 µM
[3] = second compound 0.0316 µM, first compound 0.316 µM
[4] = second compound 0.0316 µM, first compound 1 µM
[5] = second compound 0.1 µM, first compound 0.0316 µM
[6] = second compound 0.1 µM, first compound 0.1 µM
[7] = second compound 0.1 µM, first compound 0.316 µM
[8] = second compound 0.1 µM, first compound 1 µM
[9] = second compound 0.316 µM, first compound 0.0316 µM
[10] = second compound 0.316 µM, first compound 0.1 µM
[11] = second compound 0.316 µM, first compound 0.316 µM
[12] = second compound 0.316 µM, first compound 1 µM
[13] = second compound 1 µM, first compound 0.0316 µM
[14] = second compound 1 µM, first compound 0.1 µM
[15] = second compound 1 µM, first compound 0.316 µM
[16] = second compound 1 µM, first compound 1 µM
[17] = second compound 3.16 µM, first compound 0.0316 µM
[18] = second compound 3.16 µM, first compound 0.1 µM
[19] = second compound 3.16 µM, first compound 0.316 µM
[20] = second compound 3.16 µM, first compound 1 µM
[21] = second compound 10 µM, first compound 0.0316 µM
[22] = second compound 10 µM, first compound 0.1 µM
[23] = second compound 10 µM, first compound 0.316 µM
[24] = second compound 10 µM, first compound 1 µM
[25] = second compound 0.0316 µM, first compound 3.16 µM
[26] = second compound 0.0316 µM, first compound 10 µM
[27] = second compound 0.1 µM, first compound 3.16 µM
[28] = second compound 0.1 µM, first compound 10 µM
[29] = second compound 0.316 µM, first compound 3.16 µM
[30] = second compound 0.316 µM, first compound 10 µM
[31] = second compound 1 µM, first compound 3.16 µM
[32] = second compound 1 µM, first compound 10 µM
[33] = second compound 3.16 µM, first compound 3.16 µM
[34] = second compound 3.16 µM, first compound 10 µM
[35] = second compound 10 µM, first compound 3.16 µM
[36] = second compound 10 µM, first compound 10 µM
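Note: spheroids exposed to drugs for seven days before measurement.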
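Throughout, for viability, T/C: percent viability relative to DMSO vehicle control wells taken as 100%.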

For C=CCn1c(=O)c2cnc(Nc3ccc(N4CCN(C)CC4)cc3)nc2n1-c1cccc(C(C)(C)O)n1 + Cc1cccc(N(C)C(=O)C2C(O)CCN2c2nc(C)cc(C(F)(F)F)c2C#N)c1, the IC50 (second compound 0.0316 µM) was 470 nM, the IC50 (second compound 0.1 µM) was 464 nM and the IC50 (second compound 0.316 µM) was 449 nM. The IC50 (second compound 1 µM) was 481 nM, the IC50 (second compound 3.16 µM) was 479 nM and the IC50 (second compound 10 µM) was 452 nM. For the same compound, the viability, T/C (second compound 0.0316 µM, first compound 0.00316 µM) was 109%, the viability, T/C (second compound 0.0316 µM, first compound 0.01 µM) was 103% and the viability, T/C [1] was 105%. It also gave a viability, T/C [2] of 106%, a viability, T/C [3] of 71.5% and a viability, T/C [4] of 9.25%. The viability, T/C (second compound 0.1 µM, first compound 0.00316 µM) was 98%, the viability, T/C (second compound 0.1 µM, first compound 0.01 µM) was 104% and the viability, T/C [5] was 102%. It also gave a viability, T/C [6] of 108%, a viability, T/C [7] of 70.7% and a viability, T/C [8] of 8.44%. The viability, T/C (second compound 0.316 µM, first compound 0.00316 µM) was 96.6%, the viability, T/C (second compound 0.316 µM, first compound 0.01 µM) was 98.9% and the viability, T/C [9] was 103%. It also gave a viability, T/C [10] of 103%, a viability, T/C [11] of 68.4% and a viability, T/C [12] of 7.81%. For the same compound, the viability, T/C (second compound 1 µM, first compound 0.00316 µM) was 113%, the viability, T/C (second compound 1 µM, first compound 0.01 µM) was 97.3% and the viability, T/C [13] was 104%. The viability, T/C [14] was 110%, the viability, T/C [15] was 74.1% and the viability, T/C [16] was 7.99%. It also gave a viability, T/C (second compound 3.16 µM, first compound 0.00316 µM) of 112%, a viability, T/C (second compound 3.16 µM, first compound 0.01 µM) of 106% and a viability, T/C [17] of 99.7%. It also gave a viability, T/C [18] of 102%, a viability, T/C [19] of 72.8% and a viability, T/C [20] of 9.03%. The viability, T/C (second compound 10 µM, first compound 0.00316 µM) was 105%, the viability, T/C (second compound 10 µM, first compound 0.01 µM) was 105% and the viability, T/C [21] was 97%. It also gave a viability, T/C [22] of 98.8%, a viability, T/C [23] of 68.5% and a viability, T/C [24] of 8.81%.
Work on CC1COCCN1c1cc(-c2ccnn2C)c2ccnc(-c3ccn[nH]3)c2n1 (stereo unspecified) + Cc1cccc(N(C)C(=O)C2C(O)CCN2c2nc(C)cc(C(F)(F)F)c2C#N)c1 yielded an IC50 (second compound 0.0316 µM) of 207 nM, an IC50 (second compound 0.1 µM) of 202 nM and an IC50 (second compound 0.316 µM) of 198 nM. The IC50 (second compound 1 µM) was 195 nM, the IC50 (second compound 3.16 µM) was 192 nM and the IC50 (second compound 10 µM) was 181 nM. The viability, T/C [1] was 95.3%, the viability, T/C [2] was 73.4% and the viability, T/C [3] was 37%. For the same compound, the viability, T/C [4] was 21.7%, the viability, T/C [25] was 22.3% and the viability, T/C [26] was 25.4%. For the same compound, the viability, T/C [5] was 92.6%, the viability, T/C [6] was 74.4% and the viability, T/C [7] was 35%. The viability, T/C [8] was 20.8%, the viability, T/C [27] was 21.3% and the viability, T/C [28] was 27.8%. It also gave a viability, T/C [9] of 97.2%, a viability, T/C [10] of 73.3% and a viability, T/C [11] of 34.5%. The viability, T/C [12] was 20%, the viability, T/C [29] was 20.1% and the viability, T/C [30] was 25%. For the same compound, the viability, T/C [13] was 105%, the viability, T/C [14] was 71.7% and the viability, T/C [15] was 35.3%. It also gave a viability, T/C [16] of 21.3%, a viability, T/C [31] of 22% and a viability, T/C [32] of 25.4%. It also gave a viability, T/C [17] of 113%, a viability, T/C [18] of 71.8% and a viability, T/C [19] of 34.1%. The viability, T/C [20] was 21.7%, the viability, T/C [33] was 21.8% and the viability, T/C [34] was 26.4%. For the same compound, the viability, T/C [21] was 97.9%, the viability, T/C [22] was 67.7% and the viability, T/C [23] was 34.2%. For the same compound, the viability, T/C [24] was 19.5%, the viability, T/C [35] was 24.4% and the viability, T/C [36] was 23.1%.
CC1COCCN1c1cc(C2(S(C)(=N)=O)CC2)nc(-c2ccnc3[nH]ccc23)n1 (stereo unspecified) + Cc1cccc(N(C)C(=O)C2C(O)CCN2c2nc(C)cc(C(F)(F)F)c2C#N)c1 gave an IC50 (second compound 0.0316 µM) of 6390 nM, an IC50 (second compound 0.1 µM) of 6900 nM and an IC50 (second compound 0.316 µM) of 5750 nM. For the same compound, the IC50 (second compound 1 µM) was 5920 nM, the IC50 (second compound 3.16 µM) was 6600 nM and the IC50 (second compound 10 µM) was 5900 nM. For the same compound, the viability, T/C [1] was 111%, the viability, T/C [2] was 105% and the viability, T/C [3] was 103%. The viability, T/C [4] was 108%, the viability, T/C [25] was 85.2% and the viability, T/C [26] was 27.4%. For the same compound, the viability, T/C [5] was 111%, the viability, T/C [6] was 116% and the viability, T/C [7] was 105%. It also gave a viability, T/C [8] of 104%, a viability, T/C [27] of 75.2% and a viability, T/C [28] of 37.9%. The viability, T/C [9] was 104%, the viability, T/C [10] was 107% and the viability, T/C [11] was 111%. The viability, T/C [12] was 110%, the viability, T/C [29] was 72.4% and the viability, T/C [30] was 29.4%. It also gave a viability, T/C [13] of 111%, a viability, T/C [14] of 113% and a viability, T/C [15] of 114%. For the same compound, the viability, T/C [16] was 109%, the viability, T/C [31] was 75% and the viability, T/C [32] was 29.1%. The viability, T/C [17] was 117%, the viability, T/C [18] was 112% and the viability, T/C [19] was 113%. The viability, T/C [20] was 96.3%, the viability, T/C [33] was 80.8% and the viability, T/C [34] was 33%. The viability, T/C [21] was 114%, the viability, T/C [22] was 112% and the viability, T/C [23] was 106%. It also gave a viability, T/C [24] of 102%, a viability, T/C [35] of 74.6% and a viability, T/C [36] of 28.8%.
